Experimental data published in patent publication US20260159536A1, “AKR1C3-ACTIVATED DNA ALKYLATING AGENT, AND MEDICAL APPLICATION THEREOF” (ASCENTAWITS PHARMACEUTICALS, LTD., priority 2021, published 2026).
Where two headings read alike, the source gives them in different places.

Tests used:
in vitro = conditions: for metabolite AST-2660 detection: from Compound A
Description: (1) Compound A for test, progesterone positive control, and 100 mM stock solutions of AST-3021 inhibitor were prepared and stored in the freezer (−10° C. to −30° C.).
1) Negative control group: at different time points (0 and 60 min), 30 μL/well of hepatocyte cytosol suspension containing 7.5 μM of sample for test was distributed in a 96-well plate. Three replicate wells were prepared in parallel.
2) Positive control group: at different time points (0, 5, 15, 30, 45 and 60 min), 30 μL/well of hepatocyte cytosol suspension containing 7.5 μM of the positive control was distributed in a 96-well plate. Three replicate wells were prepared in parallel.
3) Normal reaction group: at different time points (0, 5, 15, 30, 45 and 60 min), 30 μL/well of hepatocyte cytosol suspension containing 7.5 μM of sample for test was distributed in a 96-well plate. Three replicate wells were prepared in parallel.
4) Inhibition reaction group: at different time points (0, 5, 15, 30, 45 and 60 min), 30 μL/well of hepatocyte cytosol suspension containing […] of sample for test and 4.5 μM of the inhibitor was distributed in a 96-well plate. Three replicate wells were prepared in parallel.
6) 0 min samples: after 150 μL/well of acetonitrile containing the internal standard was added, then 15 μL/well of pre-heated NADPH working solution was added to the samples of normal reaction group, inhibition reaction group and positive control group, and 15 μL/well of pre-heated potassium phosphate buffer was added to the samples of negative control group.
7) Other samples (5, 15, 30, 45 and 60 min): for normal reaction group, inhibition reaction group and positive control group, 15 μL/well of pre-heated NADPH working solution was added to start the reaction; for negative control group, 15 μL/well of pre-heated potassium phosphate buffer was added. The reaction plates were then continued to incubate in a 37° C. water bath and the reactions were stopped by the addition of 150 μL/well of stop solution at the corresponding time points (5, 15, 30, 45 and 60 min).
The concentration of analyte in each sample was expressed as a peak area ratio (peak area analyte/peak areainternal standard), then the peak area ratio at 0 min was used as a reference to calculate the % Remaining at each time point of the incubation, and the ln logarithmic value of the % Remaining was linearly fitted to the incubation time and the half-life was calculated according to the following formula.
In the absence of AST-3021, 5 μM of progesterone was co-incubated with 2 mM of NADPH and 1 mg/mL of hepatocyte cytosol for 0-60 min as a positive control.

[1] = Chiral stability under long-term and accelerated storage conditions; type: physicochemical
Description: Isomer stability under long-term and accelerated conditions was studied.
Compound A and isomers A-P1 and A-P2 were investigated for traits and isomeric stability at −20±5° C., 5° C.±3° C., 25° C.±2° C. (60%±5% RH) and 40° C.±2° C.

[2] = test system: HuPrime model GA6201 human gastric cancer; conditions: for Tumor volume: 60 mg/kg i.p.
Description: The test was divided into groups of the test drug Isocyclophosphamide 60 mg/kg group, the test drug AST-3424 5 mg/kg group, the test drug A compound 2.5 mg/kg and 5 mg/kg groups, and normal saline (pH 7.0-7.6) vehicle control group, a total of 5 groups, with 5 mice per group.
In the above dosing regimen, Isocyclophosphamide was designed based on the best dosing regimen with maximum safe dosage as recited in the document (Jessica D. Sun, Qian Liu, Dharmendra Ahluwalia, Damien J. Ferraro, Yan Wang, Don Jung, Mark D. Matteucci, and Charles P. Hart. Comparison of hypoxia-activated prodrug evofosfamide (TH-302) and ifosfamide in preclinical non-small cell lung cancer models [J]. Cancer Biology & Therapy, 2016, 17(4): 371-380).

[3] = 25° C. ± 2° C./60% ± 5% RH, 1 month
[4] = 25° C. ± 2° C./60% ± 5% RH, 3 months
[5] = 40° C. ± 2° C./75% ± 5% RH, 1 month
[6] = 60 mg/kg i.p. 5 days on, 2 days off, 2 weeks, Day 38

Compound: CC(=O)[C@H]1CC[C@H]2[C@@H]3CCC4=CC(=O)CC[C@]4(C)[C@H]3CC[C@]12C [Progesterone]
- half-life at 5 µM (in vitro; CD-1, mouse, hepatocyte cytosol, Metabolic parameter t1/2, mouse, 2 mM NADPH, no AST-3021 (normal reaction / positive control group), 5 μM): 37.7 min
- half-life at 5 µM (in vitro; SD, rat, hepatocyte cytosol, Metabolic parameter t1/2, rat, 2 mM NADPH, no AST-3021 (normal reaction / positive control group), 5 μM): 22.3 min
- half-life at 5 µM (in vitro; cynomolgus (printed as 'machins'), monkey, cytosol): 13.2 min
- Metabolic parameter k (in vitro; human, 2 mM NADPH, no AST-3021 (normal reaction / positive control group), 5 μM): 0.0543
- average % Remaining (in vitro; human, 2 mM NADPH, no AST-3021 (normal reaction / positive control group), 5 μM, 0 min): 100.00%
- average % Remaining (in vitro; human, 2 mM NADPH, no AST-3021 (normal reaction / positive control group), 5 μM, 5 min): 80.76%
- average % Remaining (in vitro; human, 2 mM NADPH, no AST-3021 (normal reaction / positive control group), 5 μM, 15 min): 55.69%
- average % Remaining (in vitro; human, 2 mM NADPH, no AST-3021 (normal reaction / positive control group), 5 μM, 30 min): 20.59%
- average % Remaining (in vitro; human, 2 mM NADPH, no AST-3021 (normal reaction / positive control group), 5 μM, 45 min): 7.72%
- average % Remaining (in vitro; human, 2 mM NADPH, no AST-3021 (normal reaction / positive control group), 5 μM, 60 min): 0.46%
- Metabolic parameter k (in vitro; monkey, 2 mM NADPH, no AST-3021 (normal reaction / positive control group), 5 μM): 0.0525
- average % Remaining (in vitro; monkey, 2 mM NADPH, no AST-3021 (normal reaction / positive control group), 5 μM, 0 min): 100.00%
- average % Remaining (in vitro; monkey, 2 mM NADPH, no AST-3021 (normal reaction / positive control group), 5 μM, 5 min): 82.47%
- average % Remaining (in vitro; monkey, 2 mM NADPH, no AST-3021 (normal reaction / positive control group), 5 μM, 15 min): 59.82%
- average % Remaining (in vitro; monkey, 2 mM NADPH, no AST-3021 (normal reaction / positive control group), 5 μM, 30 min): 28.19%
- average % Remaining (in vitro; monkey, 2 mM NADPH, no AST-3021 (normal reaction / positive control group), 5 μM, 45 min): 10.01%
- average % Remaining (in vitro; monkey, 2 mM NADPH, no AST-3021 (normal reaction / positive control group), 5 μM, 60 min): 3.26%
- Metabolic parameter k (in vitro; mouse, 2 mM NADPH, no AST-3021 (normal reaction / positive control group), 5 μM): 0.0184
- average % Remaining (in vitro; mouse, 2 mM NADPH, no AST-3021 (normal reaction / positive control group), 5 μM, 0 min): 100.00%
- average % Remaining (in vitro; mouse, 2 mM NADPH, no AST-3021 (normal reaction / positive control group), 5 μM, 5 min): 89.61%
- average % Remaining (in vitro; mouse, 2 mM NADPH, no AST-3021 (normal reaction / positive control group), 5 μM, 15 min): 78.52%
- average % Remaining (in vitro; mouse, 2 mM NADPH, no AST-3021 (normal reaction / positive control group), 5 μM, 30 min): 62.61%
- average % Remaining (in vitro; mouse, 2 mM NADPH, no AST-3021 (normal reaction / positive control group), 5 μM, 45 min): 44.84%
- average % Remaining (in vitro; mouse, 2 mM NADPH, no AST-3021 (normal reaction / positive control group), 5 μM, 60 min): 31.03%
- Metabolic parameter k (in vitro; rat, 2 mM NADPH, no AST-3021 (normal reaction / positive control group), 5 μM): 0.0311
- average % Remaining (in vitro; rat, 2 mM NADPH, no AST-3021 (normal reaction / positive control group), 5 μM, 0 min): 100.00%
- average % Remaining (in vitro; rat, 2 mM NADPH, no AST-3021 (normal reaction / positive control group), 5 μM, 5 min): 84.80%
- average % Remaining (in vitro; rat, 2 mM NADPH, no AST-3021 (normal reaction / positive control group), 5 μM, 15 min): 69.77%
- average % Remaining (in vitro; rat, 2 mM NADPH, no AST-3021 (normal reaction / positive control group), 5 μM, 30 min): 45.51%
- average % Remaining (in vitro; rat, 2 mM NADPH, no AST-3021 (normal reaction / positive control group), 5 μM, 45 min): 21.61%
- average % Remaining (in vitro; rat, 2 mM NADPH, no AST-3021 (normal reaction / positive control group), 5 μM, 60 min): 4.70%

Compound: O=[N+]([O-])c1ccc(C(OP(=O)(N2CC2)N2CC2)C(F)(F)F)cc1Oc1ccc(-c2ccc(F)cc2)c(F)c1 (single isomer, unassigned) [A-P2]
- Isomer peak A-P1 ([1]; 0 month): 0.25%
- Isomer peak A-P2 ([1]; 0 month): 99.75%
- Isomer peak A-P1 ([1]; 5° C. ± 3° C., 1 month): 0.25%
- Isomer peak A-P2 ([1]; 5° C. ± 3° C., 1 month): 99.75%
- Isomer transformation ([1]; 5° C. ± 3° C., 1 month): 0.00%
- Isomer peak A-P1 ([1]; 5° C. ± 3° C., 3 months): 0.25%
- Isomer peak A-P2 ([1]; 5° C. ± 3° C., 3 months): 99.75%
- Isomer transformation ([1]; 5° C. ± 3° C., 3 months): 0.00%
- Isomer peak A-P1 [1, 3]: 0.25%
- Isomer peak A-P2 [1, 3]: 99.75%
- Isomer transformation [1, 3]: 0.00%
- Isomer peak A-P1 [1, 4]: 0.25%
- Isomer peak A-P2 [1, 4]: 99.75%
- Isomer transformation [1, 4]: 0.00%
- Isomer peak A-P1 [1, 5]: 0.26%
- Isomer peak A-P2 [1, 5]: 99.74%
- Isomer transformation [1, 5]: 0.01%
- colour and chirality after storage ([1]; −20° C., 5° C., 25° C./60% RH 3 months, 40° C./75% RH 1 month): essentially no change
- Isomer peak A-P1 ([1]; −20 ± 5° C., 3 months): 0.26%
- Isomer peak A-P2 ([1]; −20 ± 5° C., 3 months): 99.74%
- Isomer transformation ([1]; −20 ± 5° C., 3 months): −0.01%

Compound: O=P(O)(N1CC1)N1CC1 [AST-2660]
- metabolite AST-2660 detection (in vitro; human, no NADPH, no AST-3021): not detected
- metabolite AST-2660 detection (in vitro; human, with NADPH): a small amount
- metabolite AST-2660 detection (in vitro; human, with NADPH and AST-3021): not detected
- metabolite AST-2660 detection (in vitro; monkey, no NADPH, no AST-3021): not detected
- metabolite AST-2660 detection (in vitro; monkey, with NADPH): a small amount
- metabolite AST-2660 detection (in vitro; monkey, with NADPH and AST-3021): detected in only one monkey 60-min sample
- metabolite AST-2660 detection (in vitro; mouse, no NADPH, no AST-3021): not detected
- metabolite AST-2660 detection (in vitro; mouse, with NADPH): not detected
- metabolite AST-2660 detection (in vitro; mouse, with NADPH and AST-3021): not detected
- metabolite AST-2660 detection (in vitro; rat, no NADPH, no AST-3021): not detected
- metabolite AST-2660 detection (in vitro; rat, with NADPH): not detected
- metabolite AST-2660 detection (in vitro; rat, with NADPH and AST-3021): not detected

Compound: O=P1(NCCCl)OCCCN1CCCl (centres unmarked) [Isocyclophosphamide, reference compound]
- Relative tumor volume (x ± S) [2, 6]: 3.85 ± 0.63
- T/C (%) [2, 6]: 41.17%
- TGI (%) [2, 6]: 58.83%
- Tumor volume (x ± S) [2, 6]: 371.02 ± 75.96
- Tumor volume ([2]; 0 day): 94.15 mm^3
- Tumor volume ([2]; 3 days): 122.22 mm^3
- Tumor volume ([2]; 7 days): 129.39 mm^3
- Tumor volume ([2]; 10 days): 175.00 mm^3
- Tumor volume ([2]; 14 days): 190.74 mm^3
- Tumor volume ([2]; 17 days): 189.23 mm^3
- Tumor volume ([2]; 21 days): 217.96 mm^3
- Tumor volume ([2]; 24 days): 225.66 mm^3
- Tumor volume ([2]; 28 days): 247.04 mm^3
- Tumor volume ([2]; 31 days): 265.76 mm^3
- Tumor volume ([2]; 35 days): 324.51 mm^3
- Tumor volume ([2]; 38 days): 371.02 mm^3
- Tumor volume ([2]; 42 days): 403.47 mm^3
- Tumor volume ([2]; 45 days): 484.83 mm^3
- Tumor volume ([2]; 49 days): 578.60 mm^3
